Laboratory results from PMC9652212 (Clinical Pharmacokinetics, 2022).
Read-outs that look alike come from different tables or passages of the source.

What was measured:
[1] = type: in vivo, human
[2] = cited from earlier work
[3] = system: pooled human liver microsomes; settings: MDZ and efavirenz; cited from earlier work
[4] = system: CYP3A; settings: cited from earlier work
[5] = system: hepatic CYP3A activity; settings: time after (first) perpetrator drug administration
[6] = calculated from model parameters
[7] = metabolite in the absence of parent compound, ref Hotz et al. 27
[8] = ref Wiebe et al. 23, Tomalik-Scharte et al. 25
[9] = oral and i.v. bolus administration

## OCc1ncc2n1-c1ccc(Cl)cc1C(c1ccccc1F)=NC2 [1’-OH-MDZ, 1’-hydroxymidazolam]
[1]; [6]
  Elimination rate constant of 1’-OH-MDZ: 0.880 h⁻¹
  Formation rate constant of 1’-OH-MDZ: 0.712 h⁻¹
[1]; interindividual variability
  IIV of 1’-OH-MDZ CL: 42.0 %CV
[1]; population estimate after metabolic conversion of MDZ
  1’-OH-MDZ CL: 264 L/h
[2]; [7]
  1’-OH-MDZ CL, reported: 34.4 to 56.7 L/h
  1’-OH-MDZ V, reported: 49.7 to 79.8 L
[2]; [8]
  1’-OH-MDZ CL, reported: 186 to 208 L/h
  1’-OH-MDZ V, reported: 256 to 876 L

## O=C1Nc2ccc(Cl)cc2[C@@](C#CC2CC2)(C(F)(F)F)O1 [efavirenz]
[3]
  Increase in metabolite formation rates: ~ 1.5 fold
[4]; 12 h after efavirenz administration, ref Mikus et al. 32
  Increase in MDZ CL: 27%
[5]
  Time of maximum CYP3A modulatory effect: 2 to 4 h

## Cc1ncc2n1-c1ccc(Cl)cc1C(c1ccccc1F)=NC2 [midazolam]
[1]; human, plasma, intravenous
  Vd: 56.7 L
  clearance: 732 mL/min
[1]; interindividual variability
  IIV of MDZ CL: 21.9 %CV
  IIV of MDZ volume of distribution: 29.9 %CV
[2]; [9]
  MDZ CL, reported: 15.2 to 45.0 L/h
  MDZ V, reported: 33.3 to 180 L/h

## C[C@@H](c1ncncc1F)[C@](O)(Cn1cncn1)c1ccc(F)cc1F [voriconazole]
[4]; within 12 h after oral voriconazole, semi-physiological model
  Decrease in hepatic CYP3A activity: 75%
[2]
  Oral bioavailability: > 90%
